Measurements taken from patent US9102621B2, “Acyl sulfonamide compounds” (Pfizer Limited, priority 2010, dated 2015).
Structures can show the parent of a compound that is named as a salt.

target: T1, Nav1.7 (or SCN9A) channel (Homo sapiens, UniProt Q15858); assay: Nav1.7 (hSCN9A) channel block, PatchXpress whole-cell electrophysiology; format: cell-based; details: PatchXpress platform; HEK cells stably transfected with hSCN9A; estimated IC-50 calculated from single point % inhibition at V1/2; read-out: Nav1.7 EIC50
T1 construct: expressed in transfected cells
Method: The ability of the compounds of formula (I) to block the Nav1.7 (or SCN9A) channel were measured using the assay described below.
Human Embryonic Kidney (HEK) cells were transfected with an hSCN9A construct using lipofectamine reagent (Invitrogen), using standard techniques. Cells stably expressing the hSCN9A constructs were identified by their resistance to G-418 (400 μg/ml). Clones were screened for expression using the whole-cell voltage-clamp technique.
HEK cells stably transfected with hSCN9A were maintained in DMEM medium supplemented with 10% heat-inactivated fetal bovine serum and 400 μg/ml G-418 in an incubator at 37° C. with a humidified atmosphere of 10% CO2. For HTS, cells were harvested from flasks by trypsinization and replated in an appropriate multi-well plate (typically 96 or 384 wells/plate) such that confluence would be achieved within 24 hours of plating. For electrophysiological studies, cells were removed from the culture flask by brief trypsinization and re-plated at low density onto glass cover slips. Cells were typically used for electrophysiological experiments within 24 to 72 hours after plating.
Cover slips containing HEK cells expressing hSCN9A were placed in a bath on the stage of an inverted microscope and perfused (approximately 1 ml/minutes) with extracellular solution of the following composition: 138 mM NaCl, 2 mM CaCl2, 5.4 mM KCl, 1 mM MgCl2, 10 mM glucose, and 10 mM HEPES, pH 7.4, with NaOH. […] The osmolarity of the extracellular and intracellular solutions was 300 mOsm/kg and 295 mOsm/kg, respectively. All recordings were made at room temperature (22-24° C.) using AXOPATCH 200B amplifiers and PCLAMP software (Axon Instruments, Burlingame, Calif.).
hSCN9A currents in HEK cells were measured using the whole-cell configuration of the patch-clamp technique (Hamill et al., 1981). Uncompensated series resistance was typically 2 to 5 mega ohms and >85% series resistance compensation was routinely achieved. As a result, voltage errors were negligible and no correction was applied. Current records were acquired at 20 to 50 KHz and filtered at 5 to 10 KHz.
HEK cells stably transfected with hSCN9A were viewed under Hoffman contrast optics and placed in front of an array of flow pipes emitting either control or compound-containing extracellular solutions. All compounds were dissolved in dimethyl sulfoxide to make 10 mM stock solutions, which were then diluted into extracellular solution to attain the final concentrations desired. […] The voltage-dependence of inactivation was determined by applying a series of depolarizing prepulses (8 sec long in 10 mV increments) from a negative holding potential. The voltage was then immediately stepped to 0 mV to assess the magnitude of the sodium current. Currents elicited at 0 mV were plotted as a function of prepulse potential to allow estimation of the voltage at which 50% of the channels were inactivated (midpoint of inactivation or V1/2). Compounds were tested for their ability to inhibit hSCN9A sodium channels by activating the channel with a 20 msec voltage step to 0 mV following an 8 second conditioning prepulse to the empirically determined V1/2. Compound effect (% inhibition) was determined by difference in current amplitude before and after application of test compounds. […] Inhibition values <20% and >80% were excluded from the calculation.
Electrophysiological assays were conducted with PatchXpress 7000 hardware and associated software (Molecular Devices Corp). All assay buffers and solutions were identical to those used in conventional whole-cell voltage clamp experiments described above. hSCN9A cells were grown as above to 50%-80% confluency and harvested by trypsinization. Trypsinized cells were washed and resuspended in extracellular buffer at a concentration of 1×10^6 cells/ml. The onboard liquid handling facility of the PatchXpress was used for dispensing cells and application of test compounds. […]

T1 sequence (Q15858 whole entry): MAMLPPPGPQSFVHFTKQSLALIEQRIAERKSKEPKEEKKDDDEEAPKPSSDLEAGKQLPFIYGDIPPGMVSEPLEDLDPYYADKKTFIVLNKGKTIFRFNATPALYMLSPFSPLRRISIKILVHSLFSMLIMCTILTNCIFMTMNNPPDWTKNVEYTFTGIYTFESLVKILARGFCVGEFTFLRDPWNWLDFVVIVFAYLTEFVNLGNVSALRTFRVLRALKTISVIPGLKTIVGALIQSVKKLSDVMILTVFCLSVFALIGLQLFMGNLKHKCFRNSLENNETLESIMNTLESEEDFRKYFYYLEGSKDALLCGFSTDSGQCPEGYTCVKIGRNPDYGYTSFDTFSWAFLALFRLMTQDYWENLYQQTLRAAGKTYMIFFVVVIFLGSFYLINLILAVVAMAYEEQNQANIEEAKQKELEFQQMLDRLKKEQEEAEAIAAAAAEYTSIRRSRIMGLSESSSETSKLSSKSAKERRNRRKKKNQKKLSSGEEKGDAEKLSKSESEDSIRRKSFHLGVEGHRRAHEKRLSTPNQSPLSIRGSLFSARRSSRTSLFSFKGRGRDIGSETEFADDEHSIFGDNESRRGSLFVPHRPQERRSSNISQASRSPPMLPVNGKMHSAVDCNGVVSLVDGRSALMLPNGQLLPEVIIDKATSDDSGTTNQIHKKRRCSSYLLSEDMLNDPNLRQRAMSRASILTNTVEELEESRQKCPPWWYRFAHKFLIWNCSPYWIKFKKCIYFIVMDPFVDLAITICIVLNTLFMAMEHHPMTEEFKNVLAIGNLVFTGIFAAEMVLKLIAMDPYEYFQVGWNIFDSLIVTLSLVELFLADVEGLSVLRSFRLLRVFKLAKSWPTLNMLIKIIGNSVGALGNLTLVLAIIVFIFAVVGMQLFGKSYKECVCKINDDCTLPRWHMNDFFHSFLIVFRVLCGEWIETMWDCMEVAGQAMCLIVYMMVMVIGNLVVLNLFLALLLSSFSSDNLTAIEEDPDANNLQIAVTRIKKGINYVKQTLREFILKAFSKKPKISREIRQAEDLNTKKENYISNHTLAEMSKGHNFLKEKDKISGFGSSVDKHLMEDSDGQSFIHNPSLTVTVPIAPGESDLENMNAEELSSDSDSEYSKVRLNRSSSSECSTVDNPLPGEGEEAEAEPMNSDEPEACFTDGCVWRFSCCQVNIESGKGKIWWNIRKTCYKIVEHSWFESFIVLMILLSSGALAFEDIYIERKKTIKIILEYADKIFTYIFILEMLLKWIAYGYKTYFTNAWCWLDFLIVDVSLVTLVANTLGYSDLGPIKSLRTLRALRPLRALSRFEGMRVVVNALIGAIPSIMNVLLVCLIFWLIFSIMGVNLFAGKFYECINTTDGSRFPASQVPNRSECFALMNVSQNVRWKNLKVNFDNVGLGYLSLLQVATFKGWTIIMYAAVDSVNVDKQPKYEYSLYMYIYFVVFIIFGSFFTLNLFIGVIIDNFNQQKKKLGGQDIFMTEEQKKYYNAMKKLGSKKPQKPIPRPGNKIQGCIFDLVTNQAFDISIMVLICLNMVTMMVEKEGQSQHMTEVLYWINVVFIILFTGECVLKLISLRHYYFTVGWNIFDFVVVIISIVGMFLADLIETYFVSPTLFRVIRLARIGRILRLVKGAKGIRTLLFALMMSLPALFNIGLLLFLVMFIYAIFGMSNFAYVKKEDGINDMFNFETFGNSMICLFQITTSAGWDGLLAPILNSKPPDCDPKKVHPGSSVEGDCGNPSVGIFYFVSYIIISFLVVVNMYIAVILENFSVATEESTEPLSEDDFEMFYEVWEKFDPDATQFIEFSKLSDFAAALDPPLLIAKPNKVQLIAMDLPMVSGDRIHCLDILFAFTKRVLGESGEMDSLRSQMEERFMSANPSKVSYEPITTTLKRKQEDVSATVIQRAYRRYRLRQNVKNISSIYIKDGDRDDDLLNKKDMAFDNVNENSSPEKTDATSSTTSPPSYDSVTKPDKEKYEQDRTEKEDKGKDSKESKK

Row | IC50 | Structure (SMILES)
1 | 153 nM | CS(=O)(=O)NC(=O)c1cc(Cl)c(COc2cnc(C3CC3)c(C3CC3)c2)cc1F [Example 57, 5-Chloro-4-{[(5,6-dicyclopropylpyridin-3-yl)oxy]methyl}-2-fluoro-N-(methylsulfonyl)benzamide diethylamine salt.]
2 | 18.6 nM | CS(=O)(=O)NC(=O)c1cc(F)c(COc2cnc(OCC(F)(F)C(F)(F)F)c(Cl)c2)cc1F [Example 25, 4-({[5-Chloro-6-(2,2,3,3,3-pentafluoropropoxy)pyridin-3-yl]oxy}methyl)-2,5-difluoro-N-(methylsulfonyl)benzamide]
3 | 1840 nM | CS(=O)(=O)NC(=O)c1cc(F)c(COc2cc(C(F)(F)F)nc(C(F)(F)F)c2)cc1F [Example 61, 4-({[2,6-bis(trifluoromethyl)pyridin-4-yl]oxy}methyl)-2,5-difluoro-N-(methylsulfonyl)benzamide]
4 | 28 nM | CC(C)Oc1ncc(OCc2cc(F)c(C(=O)NS(C)(=O)=O)cc2Cl)cc1Cl [Example 35, 5-Chloro-4-((5-chloro-6-isopropoxypyridin-3-yloxy)methyl)-2-fluoro-N-(methylsulfonyl)benzamide]
5 | > 3000 nM | CS(=O)(=O)NC(=O)c1ccc(COc2ccc3ccncc3c2)cc1 [Example 53]
6 | 838 nM | CC(C)Oc1ncc(COc2cc(F)c(C(=O)NS(C)(=O)=O)cc2F)cc1Cl [Example 29, 4-((5-Chloro-6-isopropoxypyridin-3-yl)methoxy)-2,5-difluoro-N-(methylsulfonyl)benzamide diethylamine salt]
7 | 58.2 nM | CC(C)(F)COc1ncc(OCc2cc(F)c(C(=O)NS(C)(=O)=O)cc2Cl)cc1Cl [Example 45, 5-Chloro-4-({[5-chloro-6-(2-fluoro-2-methylpropoxy)pyridin-3-yl]oxy}methyl)-2-fluoro-N-(methylsulfonyl)benzamide]
8 | < 100 nM | CS(=O)(=O)NC(=O)c1cc(Cl)c(COc2cnc(OC(C(F)(F)F)C(F)(F)F)c(Cl)c2)cc1F [Example 30, 5-Chloro-4-((5-chloro-6-(1,1,1,3,3,3-hexafluoropropan-2-yloxy)pyridin-3-yloxy)methyl)-2-fluoro-N-(methylsulfonyl)benzamide]
9 | 7440 nM | COc1ncc(OCc2cc(F)c(C(=O)NS(C)(=O)=O)cc2F)cc1Cl [Example 28, 4-((5-Chloro-6-methoxypyridin-3-yloxy)methyl)-2,5-difluoro-N-(methylsulfonyl)benzamide]
10 | 66.8 nM | CC1(COc2ncc(OCc3cc(F)c(C(=O)NS(C)(=O)=O)cc3F)cc2Cl)CC1 [Example 14, 4-((5-Chloro-6-((1-methylcyclopropyl)methoxy)pyridin-3-yloxy)methyl)-2,5-difluoro-N-(methylsulfonyl)benzamide]
11 | 39.2 nM | CS(=O)(=O)NC(=O)c1cc(F)c(COc2cnc(OCCC(F)(F)F)c(Cl)c2)cc1F [Example 11, 4-({[5-Chloro-6-(3,3,3-trifluoropropoxy)pyridin-3-yl]oxy}methyl)-2,5-difluoro-N-(methylsulfonyl)benzamide]
12 | 9.2 nM | CS(=O)(=O)NC(=O)c1cc(F)c(COc2cnc(OCC(F)(F)C(F)F)c(Cl)c2)cc1F [Example 22, 4-({[5-Chloro-6-(2,2,3,3-tetrafluoropropoxy)pyridin-3-yl]oxy}methyl)-2,5-difluoro-N-(methylsulfonyl)benzamide]
13 | 140 nM | [2H]C(C)(C)Oc1ncc(OCc2cc(F)c(C(=O)NS(C)(=O)=O)cc2F)cc1Cl [Example 24, 4-{[(5-Chloro-6-d1-isopropoxypyridin-3-yl)oxy]methyl}-2,5-difluoro-N-(methylsulfonyl)benzamide]
14 | 4980 nM | CS(=O)(=O)NC(=O)c1cc(F)c(COc2ccc(C(F)(F)F)nc2)cc1F [Example 26, 2,5-Difluoro-N-(methylsulfonyl)-4-({[6-(trifluoromethyl)pyridin-3-yl]oxy}methyl)benzamide]
15 | 2600 nM | COc1ncc(OCc2cc(F)c(C(=O)NS(=O)(=O)C3CC3)cc2F)cc1Cl [Example 4, 4-((5-Chloro-6-methoxypyridin-3-yloxy)methyl)-N-(cyclopropylsulfonyl)-2,5-difluorobenzamide]
16 | 380 nM | COc1ncc(OCc2cc(F)c(C(=O)NS(C)(=O)=O)cc2Cl)cc1Cl [Example 33, 5-Chloro-4-{[(5-chloro-6-methoxypyridin-3-yl)oxy]methyl}-2-fluoro-N-(methylsulfonyl)benzamide]
17 | > 1000 nM | CS(=O)(=O)NC(=O)c1ccc(OCc2ccc(C(F)(F)F)nc2)cc1 [Example 9, N-(methylsulfonyl)-4-{[6-(trifluoromethyl)pyridin-3-yl]methoxy}benzamide formate salt]
18 | 39.9 nM | [2H]C([2H])([2H])C([2H])(Oc1ncc(OCc2cc(F)c(C(=O)NS(C)(=O)=O)cc2Cl)cc1Cl)C([2H])([2H])[2H] [Example 39, 5-Chloro-4-{[(5-chloro-6-d7-isopropoxypyridin-3-yl)oxy]methyl}-2-fluoro-N-(methylsulfonyl)benzamide]
19 | 25.8 nM | CS(=O)(=O)NC(=O)c1cc(Cl)c(COc2cnc(OCCC(F)(F)F)c(Cl)c2)cc1F [Example 44, 5-Chloro-4-({[5-chloro-6-(3,3,3-trifluoropropoxy)pyridin-3-yl]oxy}methyl)-2-fluoro-N-(methylsulfonyl)benzamide]
20 | 62.3 nM | CS(=O)(=O)NC(=O)c1cc(Cl)c(COc2cnc(OC(F)F)c(Cl)c2)cc1F [Example 41, 5-Chloro-4-({[5-chloro-6-(difluoromethoxy)pyridin-3-yl]oxy}methyl)-2-fluoro-N-(methylsulfonyl)benzamide]
21 | 42.5 nM | CS(=O)(=O)NC(=O)c1cc(Cl)c(COc2cnc(OCC(F)(F)F)c(Cl)c2)cc1F [Example 43, 5-Chloro-4-({[5-chloro-6-(2,2,2-trifluoroethoxy)pyridin-3-yl]oxy}methyl)-2-fluoro-N-(methylsulfonyl)benzamide]
22 | > 1000 nM | CS(=O)(=O)NC(=O)c1cc(F)c(COc2cc(C(F)(F)F)c(Cl)cn2)cc1F [Example 55, 4-({[5-Chloro-4-(trifluoromethyl)pyridin-2-yl]oxy}methyl)-2,5-difluoro-N-(methylsulfonyl)benzamide]
23 | 356 nM | CS(=O)(=O)NC(=O)c1cc(Cl)c(COc2cnc(C3CC3)c(OC(F)F)c2)cc1F [Example 59, 5-Chloro-4-({[6-cyclopropyl-5-(difluoromethoxy)pyridin-3-yl]oxy}methyl)-2-fluoro-N-(methylsulfonyl)benzamide diethylamine salt]
24 | > 3000 nM | CS(=O)(=O)NC(=O)c1cc(F)c(COc2ncc(Cl)cc2Cl)cc1F [Example 60, 4-{[(3,5-dichloropyridin-2-yl)oxy]methyl}-2,5-difluoro-N-(methylsulfonyl)benzamide]

Row | Structure (SMILES) | IC50
25 | [2H]C([2H])([2H])C(Oc1ncc(OCc2cc(F)c(C(=O)NS(C)(=O)=O)cc2Cl)cc1Cl)(C([2H])([2H])[2H])C([2H])([2H])[2H] [Example 32, 4-{[(6-d9-tert-Butoxy-5-chloropyridin-3-yl)oxy]methyl}-5-chloro-2-fluoro-N-(methylsulfonyl)benzamide] | 11 nM
26 | CC(C)(C)Oc1ncc(OCc2cc(F)c(C(=O)NS(C)(=O)=O)cc2F)cc1Cl [Example 18, 4-((6-tert-Butoxy-5-chloropyridin-3-yloxy)methyl)-2,5-difluoro-N-(methylsulfonyl)benzamide] | 80.6 nM
27 | COc1cc(COc2cnc(OCC(C)C)c(Cl)c2)ccc1C(=O)NS(C)(=O)=O [Example 47, 4-{[(5-Chloro-6-isobutoxypyridin-3-yl)oxy]methyl}-2-methoxy-N-(methylsulfonyl)benzamide] | 4390 nM
28 | CC(C)COc1ncc(OCc2ccc(C(=O)NS(C)(=O)=O)cc2)cc1Cl [Example 3, 4-{[(5-Chloro-6-isobutoxypyridin-3-yl)oxy]methyl}-N-(methylsulfonyl)benzamide diethylamine salt] | 324 nM
